Data from patent US11149008B2, “Sulfamide derivatives and preparation method and use thereof” (HitGen Ltd., priority 2015, dated 2021).
pEC50, pIC50: −log10 of the molar value.

Experiments:
[1] = tested on: HepG2 cells; experiment: Cell growth inhibition measurement (CCK-8), HepG2; type: cell-based; conditions: Homo sapiens, HepG2, 72 h, highest EC50 measured during one or multiple operations, read-out: Inhibition activity against cancer cells, HepG2 (EC50)
Excerpt: (§1) A HepG2 cell strain and an HCT-116 cell strain were purchased from Shanghai Institutes for Biological Sciences; a DMEM high-sugar culture medium and an MEM culture medium were purchased from Hyclone; fetal calf serum was purchased from Gibco; trypsin was purchased from Invitrogen Shanghai; a CCK-8 kit was purchased from Beyotime Institute of Biotechnology; and, the remaining cell culture mediums and other consumables were purchased from Corning China.
(§2) HepG2 cells and HCT-116 cells in the logarithmic growth phase were digested by trypsin. After the counting of uniform cell suspension, the cell density was adjusted as 1500 cells/well by a culture medium containing 10% serum. The cells were re-inoculated to a 96-well cell culture plate, and cultured to a volume of 200 μL at 37° C. in an incubator containing 5% CO2. The cells could be tested after being cultured for 24 h.
(§3) The cells cultured for 24 h were taken out from the incubator. The culture liquid in the well plate was sucked out, and 200 μL of compound solution prepared in the culture medium containing 10% fetal calf serum was added in each well. Five parallel mediums were provided for each concentration, and a DMSO culture medium was used as negative control. The culture mediums were cultured for 72 h at 37° C. in an incubator containing 5% CO2, and CCK-8 detection was performed.
(§4) A serum-free culture medium and CCK-8 solution were prepared, and CCK-8 working solution was prepared at a ratio of 10:1 (this process should be performed in dark place).
(§5) The cells cultured for 72 h were taken out from the incubator. The culture liquid in the well plate was sucked out, and 120 μL of the CCK-8 working solution was added in each well. A well plate without cells was also added with 120 μL of the CCK-8 working solution to serve as blank control. The well plates were cultured for 1 h at 37° C. in an incubator containing 5% CO2 (this process should be performed in dark place).
(§6) The well plates were taken out from the incubator, 100 μL of solution in each well was sucked out and added in a new 96-well plate, and the absorbance was measured at 450 nm (this process should be performed in dark place).
(§7) where Tx is the absorbance of the CCK-8 after the compound acts for 72 h;
(§8) C is the absorbance of the CCK-8 after the negative control wells are cultured for 72 h; and
(§9) B is the absorbance of the CCK-8 in the blank control wells.
(§10) The test results of the compounds prepared according to the embodiments during the measurement are shown in Table 3, wherein the measured highest EC50 of the compounds during one operation or multiple operations is classified according to the following description: […]

[2] = target: HDAC 1 (Homo sapiens, UniProt Q13547); experiment: Enzyme activity detection of histone deacetylase 1 (fluorogenic substrate deacetylation); type: biochemical; conditions: 0.28 ng/μL HDAC 1, 10 μM substrate; IC50 class
Excerpt: During the deacetylation detection of a substrate, the HDAC inhibition activity of the compound of the present invention was detected.
C: Enzyme Activity Detection of Histone Deacetylase 1
Acetyl on the substrate was removed by the HDAC 1, so that the substrate was activated, and the developing liquid added subsequently could act on the substrate to release the fluorescent group. The size of the fluorescence signal reflected the activity of the HDAC 1. The IC50 detection method for this enzyme was disclosed in Chuping Xu, Elisabetta Soragni Improved Histone Deacetylase Inhibitors as Therapeutics for the Neurdegenerative Disease Friedreich's Ataxia: A New Synthetic Route. The total reaction system (100 μL/well) contained 0.28 ng/μL of HDAC 1, 10 μM of the substrate and the compound in different concentrations. The fluorescence signal was detected online at Ex/Em=360/460. The inhibition effect of the compound was determined from the obtained data, a concentration response curve was obtained by using the inhibition effect and the concentration of the compound, and the value of IC50 was fitted according to a four-parameter model.
The activities of the compounds prepared in the embodiments against the histone deacetylases 1, 3 and 6 (i.e., HDAC 1, HDAC 3 and HDAC 6) were detected by the above methods, and the test results were shown in Table 2, where the measurements of IC50 of the compounds were classified according to the following description: […]

[3] = tested on: HCT-116 cells; experiment: Cell growth inhibition measurement (CCK-8), HCT-116; type: cell-based; conditions: Homo sapiens, HCT-116, 72 h, highest EC50 measured during one or multiple operations, read-out: Inhibition activity against cancer cells, HCT-116 (EC50)
Excerpt: as §1, §2, §3, §4, §5, §6, §7, §8, §9, §10

HDAC 1, sequence (Q13547 whole entry, species assumed): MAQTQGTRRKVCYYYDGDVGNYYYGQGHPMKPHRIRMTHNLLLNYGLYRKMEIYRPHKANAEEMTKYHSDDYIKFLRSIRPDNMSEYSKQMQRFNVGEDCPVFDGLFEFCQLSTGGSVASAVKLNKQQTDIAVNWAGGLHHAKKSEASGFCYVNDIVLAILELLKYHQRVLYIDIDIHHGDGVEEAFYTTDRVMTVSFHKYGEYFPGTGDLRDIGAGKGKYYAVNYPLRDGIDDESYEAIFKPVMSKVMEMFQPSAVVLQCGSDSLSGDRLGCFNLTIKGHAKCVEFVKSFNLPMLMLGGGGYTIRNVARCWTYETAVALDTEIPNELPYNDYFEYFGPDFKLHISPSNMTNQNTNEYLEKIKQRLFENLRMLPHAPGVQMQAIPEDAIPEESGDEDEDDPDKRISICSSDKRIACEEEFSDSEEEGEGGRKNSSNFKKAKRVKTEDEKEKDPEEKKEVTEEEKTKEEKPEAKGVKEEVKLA

| SMILES | pEC50 [1] | pIC50 [2] | pEC50 [3] |
| --- | --- | --- | --- |
| CN1CCN(c2ccc(-c3ccc(S(=O)(=O)N4CC=C(C(=O)NO)CC4)cc3)cc2F)CC1 [Compound 3, N-hydroxyl-1-((3′-fluoro-4′-(4-methylpiperazine-1-yl)-[1,1′-biphenyl]-4-yl)sulfonyl)-1,2,3,6-tetrahydropyridine-4-formamide] | > 7.00 | – | – |
| COCCN1CCN(c2ccc(-c3ccc(S(=O)(=O)N4CC=C(C(=O)NO)CC4)cc3)cc2)CC1 [Compound 4, N-hydroxyl-1-((4′-(4-(2-methoxyethyl)piperazine-1-yl)-[1,1′-biphenyl]-4-yl)sulfonyl)-1,2,3,6-tetrahydropyridine-4-formamide] | > 7.00 | – | – |
| CN1CCN(c2ccc(-c3ccc(S(=O)(=O)N4CC=C(C(=O)NO)CC4)cc3)cn2)CC1 [Compound 5] | > 7.00 | – | – |
| CCN1CCN(c2ccc(-c3ccc(S(=O)(=O)N4CC=C(C(=O)NO)CC4)cc3)cc2)CC1 [Compound 6] | > 7.00 | > 7.00 | > 7.00 |
| CN1CCN(c2ccc(-c3ccc(S(=O)(=O)N4CC=C(C(=O)NO)CC4)cc3F)cc2)CC1 [Compound 7, N-hydroxyl-1-((2-fluoro-4′-(4-methylpiperazine-1-yl)-[1,1′-biphenyl]-4-yl)sulfonyl)-1,2,3,6-tetrahydropyridine-4-formamide] | > 7.00 | – | > 7.00 |
| CN(C)Cc1ccc(-c2ccc(S(=O)(=O)N3CC=C(C(=O)NO)CC3)cc2)cc1 [Compound 8, N-hydroxyl-1((4′-((dimethylamino)methyl)-[1, 1′-biphenyl]-4-yl)sulfonyl)-1,2,3,6-tetrahydropyridine-4-formamide] | > 7.00 | > 7.00 | > 7.00 |
| CC1CN(c2ccc(-c3ccc(S(=O)(=O)N4CC=C(C(=O)NO)CC4)cc3)cc2)CCN1C (stereo not shown) [Compound 9, N-hydroxyl-1-((4′-(3,4′-dimethylpiperazine-1-yl)-[1,1′-biphenyl]-4-yl)sulfonyl)-1,2,3,6-tetrahydropyridine-4-formamide] | > 7.00 | – | – |
| O=C(NO)C1=CCN(S(=O)(=O)c2ccc(-c3ccc(N4CCNCC4)cc3)cc2)CC1 [Compound 10, N-hydroxyl-1-((4′-(piperazine-1-yl)-[1,1′-biphenyl]-4-yl)sulfonyl)-1,2,3,6-tetrahydropyridine-4-formamide] | > 7.00 | – | – |
| O=C(NO)C1=CCN(S(=O)(=O)c2ccc(-c3ccc(N4CCN(C5CC5)CC4)cc3)cc2)CC1 [Compound 11, N-hydroxyl-1-((4′-(4-cyclopropylpiperazine-1-yl)-[1,1′-biphenyl]-4-yl)sulfonyl)-1,2,3,6-tetrahydropyridine-4-formamide] | > 7.00 | – | – |
| CN(C)CCc1ccc(-c2ccc(S(=O)(=O)N3CC=C(C(=O)NO)CC3)cc2)cc1 [Compound 12, N-hydroxyl-1-((4′-(2-(dimethylamino)ethyl)-[1, 1′-biphenyl]-4-yl)sulfonyl)-1,2,3,6-tetrahydropyridine-4-formamide] | > 7.00 | > 7.00 | > 7.00 |
| CN1CCN(c2ccc(-c3ccc(S(=O)(=O)N4CC=C(C(=O)NO)CC4)cn3)cc2)CC1 [Compound 13, N-hydroxyl-1-((6-(4-(4-methylpiperazine-1-yl)phenyl)pyridine-3-yl)sulfonyl)-1,2,3,6-tetrahydropyridine-4-formamide] | > 7.00 | > 7.00 | > 7.00 |
| CN1CCC(n2cc(-c3ccc(S(=O)(=O)N4CC=C(C(=O)NO)CC4)cc3)cn2)CC1 [Compound 14, N-hydroxyl-1-((4-(1-(1-methylpiperidine-4-yl)-1H-pyrazol-4-yl)phenyl)sulfonyl)-1,2,3,6-tetrahydropyridine-4-formamide] | < 7.00 | – | – |
| CN1CCN(c2ccc(-c3ccc(S(=O)(=O)N4C=CC(C(=O)NO)CC4)cc3)cc2)CC1 (stereo not shown) [Compound 15, N-hydroxyl-1-((4′-(4-methylpiperazine-1-yl)-[1, 1′-biphenyl]-4-yl)sulfonyl)-1,2,3,4-tetrahydropyridine-4-formamide] | > 7.00 | > 7.00 | > 7.00 |
| COCCN1CCN(c2ccc(-c3ccc(S(=O)(=O)N4CC=C(C(=O)NO)CC4)cc3)cn2)CC1 [Compound 17, N-hydroxyl-1-((4-(6-(4-(2-methoxyethyl)piperazine-1-yl)pyridine-3-yl)phenyl)sulfonyl)-1,2,3,6-tetrahydropyridine-4-formamide] | < 7.00 | – | – |
| CCN(CC)Cc1ccc(-c2ccc(S(=O)(=O)N3CC=C(C(=O)NO)CC3)cc2)cc1 [Compound 18, N-hydroxyl-1-((4′-((diethylamino)methyl)-[1,1′-biphenyl]-4-yl)sulfonyl)-1,2,3,6-tetrahydropyridine-4-formamide] | > 7.00 | > 7.00 | > 7.00 |
| CN1CCN(Cc2ccc(-c3ccc(S(=O)(=O)N4CC=C(C(=O)NO)CC4)cc3)cc2)CC1 [Compound 20, N-hydroxyl-1-((4′-((4-methylpiperazine-1-yl)methyl)-[1,1′-biphenyl]-4-yl)sulfonyl)-1,2,3,6-tetrahydropyridazole-4-formamide] | > 7.00 | – | > 7.00 |
| O=C(NO)C1=CCN(S(=O)(=O)c2ccc(-c3ccc(CN4CCOCC4)cc3)cc2)CC1 [Compound 21, N-hydroxyl-1-((4′-(morpholinylmethyl)-[1,1′-biphenyl]-4-yl)sulfonyl)-1,2,3,6-tetrahydropyridine-4-formamide] | > 7.00 | – | > 7.00 |
| CN(C)CCNC(=O)c1ccc(-c2ccc(S(=O)(=O)N3CC=C(C(=O)NO)CC3)cc2)cc1 [Compound 22, N-hydroxyl-1-((4′-((2-(dimethylamino)ethyl)aminoformyl)-[1,1′-biphenyl]-4-yl)sulfonyl)-1,2,3,6-tetrahydropyridine-4-formamide] | < 7.00 | – | – |
| CN1CCCN(c2ccc(-c3ccc(S(=O)(=O)N4CC=C(C(=O)NO)CC4)cc3)cn2)CC1 [Compound 24, N-hydroxyl-1-((4-(6-(4-methyl-1,4-diazaheptane-1-yl)pyridine-3-yl)phenyl)sulfonyl)-1,2,3,6-tetrahydropyridine-4-formamide] | > 7.00 | – | – |
